Experiment: Cytotoxicity assay (AlamarBlue) in mock infected MT-2 cells
Format: cell-based
Conditions: human
Method: The present assay was used to screen candidate antiviral compounds by quantification of virus spread and production over several rounds of infection in vitro. MT-2, a HIV-1 permissive human T-cell line, was seeded in microtiter plates and was simultaneously treated with serially diluted compound and inoculated with a HIV-1 NL4-3 viral clone engineered to express Renilla luciferase in place of Nef. Following treatment, the culture was incubated for 96 hours. After the incubation, media was collected and used to estimate relative infectivity on the indicator cell line, TZM-bl. Additionally, viral spread was quantified by measuring luciferase activity via a commercially available luciferase substrate. In parallel, MT-2 cells were seeded and inoculated with mock virus in the presence of serially diluted compound. Compound toxicity was quantified 96 hours after treatment with AlamarBlue.
MT-2 (NIH Aids reagent program 237) cells were grown and maintained in an incubator at 37° C. with 5% CO2 using a basal medium of RPMI-1640 supplemented with 10% FBS. Cells were seeded in 100 μl at 2×10^4 cells/well in white walled 96-well microtiter plates. Candidate compounds were 3-fold serially diluted in the appropriate solvent. Solvent without compound was used as a no drug reference. Cells were inoculated at a multiplicity of 0.027 with an HIV-1 NL4-3 virus stock engineered to express Renilla luciferase in place of Nef. Diluted virus stock was first added to serially diluted compound. Compound and virus were delivered to cells in an equal volume (100 μl) and treated cultures were returned to the incubator for 96 hours. In parallel, plates for cytotoxicity estimates were prepared in the same way except cells were plated in clear walled 96-well microtiter plates and were mock infected.
At 96 hours post treatment, 20 μl AlamarBlue proliferation reagent was added to 200 μl treated and mock infected cultures and incubated for 3 hours at 37° C. with 5% CO2 then read at 545, 590 nm on fluorescence plate reader (Biotek).
For all assays, data was imported into Accelrys Assay Explorer 3.3. In Assay Explorer, % inhibition (antiviral or cytotoxicity) was calculated using the solvent control as a reference by the following equation: 1−(SignalCompound/SignalReference). The % Inhibition and compound concentration data was fitted using the following 4-parameter logistic model (Assay Explorer model 42):
[formula] where X is compound concentration, Y is % inhibition, D is the maximum % Inhibition (constrained to 100%), C is IC50 value or inflection point, B is the hill slope, and A is the minimum % inhibition (constrained to 0%). The IC50 value is reported as the EC50 or CC50 depending on the assay endpoint. EC50 represents the effective concentration at which virus replication is inhibited by 50 percent. CC50 represents the concentration that results in the death of 50 percent of the host cells. The selectivity or therapeutic index (SI or TI), is the ratio of CC50 over EC50 and represents the relative effectiveness in inhibiting viral replication compared to inducing cell death.

Question: With `CCOC(=O)CCCOc1cc(/C=C/C2NCCc3cc(OCc4ccccc4)c(OC)cc32)ccc1OC` (centres unmarked) [CV, ethyl 4-{5-[(E)-2-[6-(benzyloxy)-7-methoxy-1,2,3,4-tetrahydroisoquinolin-1-yl]ethenyl]-2-methoxyphenoxy}butanoate] as the compound, how does the CC50 at 96 h read?
Answer: 2.7 µM

Question: With `COc1cc2c(cc1OCc1ccccc1)CCNC2/C=C/c1ccc(OC)c2ccoc12` (centres unmarked) [Example AO, 6-Benzyloxy-7-methoxy-1-[(E)-2-(4-methoxybenzofuran-7-yl)vinyl]-1,2,3,4-tetrahydroisoquinoline] as the compound, how does the CC50 at 96 h read?
Answer: 9.94 µM

Question: With `COc1cc2occc2cc1/C=C/C1NCCc2cc(OCc3ccccc3)c(OC)cc21` (centres unmarked) [EB, 6-(benzyloxy)-7-methoxy-1-[(E)-2-(6-methoxy-1-benzofuran-5-yl)ethenyl]-1,2,3,4-tetrahydroisoquinoline] as the compound, how does the CC50 at 96 h read?
Answer: 6 µM

Question: For `COc1ccc(/C=C/C2NCCc3cc(OCc4ccccc4)c(OC)cc32)cc1OC` (centres unmarked) [BQ, 6-(benzyloxy)-1-[(E)-2-(3,4-dimethoxyphenyl)ethenyl]-7-methoxy-1,2,3,4-tetrahydroisoquinoline], which CC50 at 96 h is on record?
Answer: 8.7 µM

Question: With `COc1cc(C(C)(C)C)c(/C=C/C2NCCc3cc(OCc4ccccc4)c(OC)cc32)cc1OCc1ccccc1` (centres unmarked) [Example J, 6-Benzyloxy-1-[(E)-2-(5-benzyloxy-2-tert-butyl-4-methoxy-phenyl)vinyl]-7-methoxy-1,2,3,4-tetrahydroisoquinoline] as the compound, how does the CC50 at 96 h read?
Answer: 5.36 µM

Question: For `COc1ccc(/C=C/C2NCCc3cc(OCc4ccccc4)c(OC)cc32)cc1CN1CCCCC1` (centres unmarked) [EM, 6-(benzyloxy)-7-methoxy-1-[(E)-2-[4-methoxy-3-(piperidin-1-ylmethyl)phenyl]ethenyl]-1,2,3,4-tetrahydroisoquinoline], which CC50 at 96 h is on record?
Answer: 1.8 µM

Question: Which CC50 at 96 h does the source give for `COc1cc(F)c(/C=C/C2NCCc3cc(OCc4ccccc4)c(OC)cc32)c(F)c1` (centres unmarked) [BU, 6-(benzyloxy)-1-[(E)-2-(2,6-difluoro-4-methoxyphenyl)ethenyl]-7-methoxy-1,2,3,4-tetrahydroisoquinoline] here?
Answer: 10.6 µM

Question: Which CC50 at 96 h does the source give for `COc1cc2c(cc1OCc1ccccc1)CCNC2/C=C/c1cc2c(cc1C)OCCC2` (centres unmarked) [CE, 6-(benzyloxy)-7-methoxy-1-[(E)-2-(7-methyl-3,4-dihydro-2H-1-benzopyran-6-yl)ethenyl]-1,2,3,4-tetrahydroisoquinoline] here?
Answer: 4.87 µM

Question: Which CC50 at 96 h does the source give for `COc1cc(C)c(/C=C/C2NCCc3cc(OCc4ccccc4)c(OC)cc32)cc1OCCCCN=[N+]=[N-]` (centres unmarked) [CD, 1-[(E)-2-[5-(4-azidobutoxy)-4-methoxy-2-methylphenyl]ethenyl]-6-(benzyloxy)-7-methoxy-1,2,3,4-tetrahydroisoquinoline] here?
Answer: 1.63 µM

Question: For `COc1cc2c(cc1OCc1ccccc1)CCNC2/C=C/c1ccc(-c2cccnc2)cc1` (centres unmarked) [DJ, 6-(benzyloxy)-7-methoxy-1-[(E)-2-[4-(pyridin-3-yl)phenyl]ethenyl]-1,2,3,4-tetrahydroisoquinoline], which CC50 at 96 h is on record?
Answer: 5.86 µM

Question: For `COc1cc(C)c(/C=C/C2NCCc3cc(OCc4ccccc4)c(OC)cc32)cc1OC` (centres unmarked) [Example AH, 6-benzyloxy-1-[(E)-2-(4,5-dimethoxy-2-methyl-phenyl)vinyl]-7-methoxy-1,2,3,4-tetrahydroisoquinoline], which CC50 at 96 h is on record?
Answer: 2.4 µM

Question: Which CC50 at 96 h does the source give for `COc1cc2c(cc1OCc1ccccc1)CCNC2/C=C/c1cc(OCC2CCNCC2)c(OC)cc1C` (centres unmarked) [BY, 6-(benzyloxy)-7-methoxy-1-[(E)-2-[4-methoxy-2-methyl-5-(piperidin-4-ylmethoxy)phenyl]ethenyl]-1,2,3,4-tetrahydroisoquinoline] here?
Answer: 1.97 µM

Question: With `COc1ccc(/C=C/C2c3cc(OC)c(OCc4ccccc4)cc3CCN2C(=O)c2cnccn2)cc1OCc1ccccc1` (centres unmarked) [Example B, [6-Benzyloxy-1-[(E)-2-(3-benzyloxy-4-methoxy-phenyl)vinyl]-7-methoxy-3,4-dihydro-1H-isoquinolin-2-yl]-pyrazin-2-yl-methanone] as the compound, how does the CC50 at 96 h read?
Answer: 5 µM

Question: For `COc1cc2c(cc1OC)C(/C=C/c1cc(OCc3ccccc3)c(OC)cc1C)NCC2` (centres unmarked) [Example C, 1-[(E)-2-(5-Benzyloxy-4-methoxy-2-methyl-phenyl)vinyl]-6,7-dimethoxy-1,2,3,4-tetrahydroisoquinoline], which CC50 at 96 h is on record?
Answer: 11 µM
